According to patent publication US9242948B2, “Diepoxy compound, process for producing same, and composition containing the diepoxy compound” (Sumitomo Chemical Company, Limited, priority 2009, dated 2016):

Test: Measurement of solubility in methyl isobutyl ketone
Type: physicochemical
Conditions: for Solubility: compound (g)×100/[compound (g)+methyl isobutyl ketone (g)]; for Solubility relative to that of the compound represented by the formula (A): from Table 1
Method: <Measurement of Solubility>
by the formula (1-1) which was obtained in Example 2, the compound represented by the formula (1-2) which was obtained in Example 6, and the compound represented by the following formula (A)
[drawing 31] (compound (g)×100/[compound (g)+methyl isobutyl ketone (g)], % by weight) were measured.

SMILES | Solubility (40° C.) | Solubility (65° C.) | Solubility relative to that of the compound represented by the formula (A)
O=C(OC1CCC(c2ccc(OCC3CO3)cc2)CC1)c1ccc(OCC2CO2)cc1 (centres unmarked) [formula (1-1), 4-{4-(2,3-epoxypropoxy)phenyl}cyclohexyl 4-(2,3-epoxypropoxy)benzoate] | 2.36 % by weight | 4.16 % by weight | more than twice as big
Cc1cc(OC(=O)c2ccc(OCC3CO3)cc2)ccc1OC(=O)c1ccc(OCC2CO2)cc1 (centres unmarked) [formula (A), reference compound] | 1.10 % by weight | 2.00 % by weight | –
Cc1cc(C(=O)OC2CCC(c3ccc(OCC4CO4)cc3)CC2)ccc1OCC1CO1 (centres unmarked) [formula (1-2), 4-{4-(2,3-epoxypropoxy)phenyl}cyclohexyl 4-(2,3-epoxypropoxy)-3-methylbenzoate] | 2.01 % by weight | 4.70 % by weight | more than twice as big
